The source of these data is PMC2801521, “Correctness of Protein Identifications of Bacillus subtilis Proteome with the Indication on Potential False Positive Peptides Supported by Predictions of Their Retention Times” (Journal of Biomedicine and Biotechnology, 2009).

The nature of the first series: Experimental gradient RP-LC retention time of peptides (LC-ESI-MS/MS). In kind it is physicochemical. Particulars: Table 1, model peptides; gradient RP-LC, XTerra MS C18 3.5 μm 2.1 × 100 mm, 0-60% ACN with 0.1% TFA, linear 90 min, 200 μL/min, 20°C, ESI-MS/MS, at peak intensity maximum. As for the experimental part: The chromatographic analysis was performed on C-18 analytical column: XTerra MS C18 3.5 μm (2.1 × 100 mm) column (Waters, Milford, MA, USA).
The mobile phase consisted of two solvents (A and B) mixed on-line. Solvent A was 0.1% aqueous (water was MS-grade) solution of trifluoroacetic acid (TFA) (Sigma-Aldrich, Steinheim, Germany) and solvent B was acetonitrile (ACN) (MS-grade, Sigma-Aldrich, Steinheim, Germany) containing 0.1% TFA. The applied linear gradient time was 90 min, from 0% B to 60% B. The flow rate was 200 μL/min. The injection volume was 10 μL. The LC-MS apparatus was equipped with thermostated column oven and surveyor autosampler controlled at 20°C (Thermo Finnigan, San Jose, CA, USA), a quaternary gradient Surveyor MS pump (Thermo Finnigan, San Jose, CA, USA) with a diode array detection (DAD) system, and LTQ linear ion trap MS system with ESI ion source controlled by Xcalibur software 1.4 (Thermo Finnigan, San Jose, CA, USA).
The MS/MS analysis was performed on Finnigan LTQ instrument (Thermo Finnigan, San Jose, CA, USA). Mass spectra were generated in positive ion mode under constant instrumental conditions: source voltage 4.62 kV, capillary voltage 40.97 V, sheath gas flow rate 39.99 (arbitrary units), auxiliary gas flow 10 (arbitrary units), sweep gas flow 0.95 (arbitrary units), capillary temperature 219.96°C, and tube lens voltage 250.43 V. MS/MS spectra, obtained by CID (collision-induced dissociation) in the linear ion trap, were performed with an isolation width 3Da (m/z); the activation amplitude was 35% of ejection RF amplitude that corresponds to 1.58 V.
The experimental retention times of the peptides (tR exp) were determined at peak intensity maximum. The m/z values measured manually for the most intense peaks in acquired MS/MS spectra were automatically searched against the protein database (*fasta) using the Sequest Algorithm, incorporated into Bioworks 3.0 (Thermo Finningan, San Jose, CA, USA). The *fasta format for each protein was downloaded from Expasy (http://www.expasy.org/sprot/).
“AAFTECCQAADK [model peptide from tryptic digest of model protein 6]” registered a tR exp of 19.31 min.

In turn, “CCAAADPHECYAK [model peptide from tryptic digest of model protein 6]” gave a tR exp of 16.98 min.

Consider “HIIVACEGNPYVPVHFDASV [model peptide from tryptic digest of model protein 7]”, for which the tR exp is given as 32.15 min.

“NECFLQHK [model peptide from tryptic digest of model protein 6]” yielded a tR exp of 19.67 min.

In turn, “QHMDSSTSAASSSNYCNQMMK [model peptide from tryptic digest of model protein 7]” showed a tR exp of 20.46 min.

The substance “TCVADESAENCDK [model peptide from tryptic digest of model protein 6]” gave a tR exp of 15.32 min.

With “VHTECCHGDLLECADDR [model peptide from tryptic digest of model protein 6]”, the tR exp was 22.86 min.

As to “VHTECCHGDLLECADDRADLAK [model peptide from tryptic digest of model protein 6]”, the tR exp is given as 24.98 min.

As for “YICENQDSISSK [model peptide from tryptic digest of model protein 6]”, the tR exp is on record as 18.06 min.

Substance “YPNCAYK [model peptide from tryptic digest of model protein 7]” had a tR exp of 16.78 min.

Staying with this series, now noted: Table 2, test peptides from model proteins; gradient RP-LC, XTerra MS C18, 0-60% ACN with 0.1% TFA in 90 min, 200 μL/min, 20°C, ESI-MS/MS.
Substance “ETCFAEEGKK [test peptide from tryptic digest of model protein 6]” showed a tR exp of 16.58 min.

In the case of “NVACK [test peptide from tryptic digest of model protein 7]”, the tR exp was 8.38 min.

Still in this series, the particulars now being: Table 5, Bacillus subtilis proteome peptides, one peptide, Xcorr below 1.5; gradient RP-LC, XTerra MS C18, 0-60% ACN with 0.1% TFA in 90 min, 200 μL/min, 20°C, ESI-MS/MS.
AQLSEKKGADGYL showed a tR exp of 26.46 min.

In turn, DGITDVL came in with a tR exp of 93.5 min.

DGWKVCLGKVGSMDAHKVVAAIETASKKSG: the tR exp is given as 37.72 min.

In the case of ELSASMG, the tR exp is listed as 18.33 min.

For the substance EPIQSFFQID, the tR exp is 51.92 min.

The substance GIIAAYG displayed a tR exp of 89.29 min.

GQEQLIPPLIL came in with a tR exp of 81.34 min.

HGGSLSAPAIH came in with a tR exp of 97.03 min.

For the substance IDFPTNITMD, the tR exp amounted to 96.80 min.

For the substance IGLLIFLP, the tR exp worked out at 93.97 min.

IHTLEHLLAFTI: the tR exp amounted to 81.04 min.

Turning to KIDKSIFPGIQGGPLMH, the tR exp is recorded as 12.03 min.

LAAGISTI came in with a tR exp of 92.62 min.

Substance LTELQVRHII displayed a tR exp of 48.06 min.

With NRAVGFISFVI, the tR exp stood at 58.59 min.

Substance PIITVAKEAWPTL returned a tR exp of 83.17 min.

In turn, PQTPVP gave a tR exp of 80.37 min.

For the substance TGALIVYTSADSVLQIAAHEEVVPLEE, the tR exp came to 52.12 min.

Staying with this series, now noted: experimental gradient HPLC retention time (LC-ESI-MS/MS); Table 4 test peptides.
Turning to AAEMAVARQNEQKVKK, the tR exp turned out to be 29.44 min.

In turn, DIMSPSR registered a tR exp of 14.30 min.

DRVFIAPVGGGPR registered a tR exp of 29.82 min.

On to EAEELIPNVTTAAVK, for which the tR exp turned out to be 29.18 min.

Consider EGTVIKELIGAGQLDEK, for which the tR exp turned out to be 29.49 min.

ELQEKFLIPAVEQKK registered a tR exp of 29.27 min.

Consider EVMIEGVLSVLEGQAPK, for which the tR exp was determined as 29.51 min.

Turning to GHNPGQPEPLSGSK, the tR exp stood at 17.05 min.

Substance GNQVSENLQQAAR displayed a tR exp of 20.52 min.

Consider HSSDEEPFSALAFK, for which the tR exp is listed as 33.16 min.

Consider IDIALESKK, for which the tR exp came to 18.04 min.

For IDNLSYYIEQEYK, the tR exp is recorded as 30.89 min.

INIMSAR displayed a tR exp of 14.23 min.

In the case of LALDLESKK, the tR exp turned out to be 18.01 min.

As to LEIASEFGVNLGADTTSR, the tR exp came out at 33.12 min.

Turning to LIDKHKKYVYHRINK, the tR exp came to 29.00 min.

For LNSLDSR, the tR exp came out at 14.29 min.

The substance NIAEMVK gave a tR exp of 14.25 min.

The substance NLLFAAR gave a tR exp of 14.27 min.

In turn, QDIPIEARMNEIVHSLK gave a tR exp of 29.33 min.

In the case of SGETEDSTIADIAVATNAGQIK, the tR exp was determined as 30.05 min.

In the case of SGSIESIDVSLTDLR, the tR exp is 33.05 min.

With SHTGKAAVLNR, the tR exp is 24.54 min.

VVVSVNTDQDQAQAQSQDGED displayed a tR exp of 19.37 min.
